Patent US9579314B2 (priority 2015, dated 2017)
pIC50: −log10 of the molar value.

Tests used:
Human M3 receptor = Human M3 receptor (Homo sapiens, UniProt P20309); details: read-out: M3 binding affinity
Human β2 adrenoceptor = Human β2 adrenoceptor (Homo sapiens, UniProt P07550); details: read-out: B2 binding affinity
Sequence of Human β2 adrenoceptor (P07550 whole entry): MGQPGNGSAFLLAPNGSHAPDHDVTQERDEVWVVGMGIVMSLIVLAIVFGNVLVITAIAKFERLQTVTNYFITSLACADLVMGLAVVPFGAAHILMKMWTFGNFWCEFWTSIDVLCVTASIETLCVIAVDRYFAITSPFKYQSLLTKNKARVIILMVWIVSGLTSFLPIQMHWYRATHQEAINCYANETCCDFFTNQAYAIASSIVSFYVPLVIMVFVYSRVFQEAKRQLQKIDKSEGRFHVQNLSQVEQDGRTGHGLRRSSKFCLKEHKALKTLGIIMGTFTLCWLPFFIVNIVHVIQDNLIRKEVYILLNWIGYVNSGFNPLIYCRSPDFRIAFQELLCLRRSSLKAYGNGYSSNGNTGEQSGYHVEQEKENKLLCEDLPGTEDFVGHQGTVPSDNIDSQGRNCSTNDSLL

Sequence of Human M3 receptor (P20309 whole entry): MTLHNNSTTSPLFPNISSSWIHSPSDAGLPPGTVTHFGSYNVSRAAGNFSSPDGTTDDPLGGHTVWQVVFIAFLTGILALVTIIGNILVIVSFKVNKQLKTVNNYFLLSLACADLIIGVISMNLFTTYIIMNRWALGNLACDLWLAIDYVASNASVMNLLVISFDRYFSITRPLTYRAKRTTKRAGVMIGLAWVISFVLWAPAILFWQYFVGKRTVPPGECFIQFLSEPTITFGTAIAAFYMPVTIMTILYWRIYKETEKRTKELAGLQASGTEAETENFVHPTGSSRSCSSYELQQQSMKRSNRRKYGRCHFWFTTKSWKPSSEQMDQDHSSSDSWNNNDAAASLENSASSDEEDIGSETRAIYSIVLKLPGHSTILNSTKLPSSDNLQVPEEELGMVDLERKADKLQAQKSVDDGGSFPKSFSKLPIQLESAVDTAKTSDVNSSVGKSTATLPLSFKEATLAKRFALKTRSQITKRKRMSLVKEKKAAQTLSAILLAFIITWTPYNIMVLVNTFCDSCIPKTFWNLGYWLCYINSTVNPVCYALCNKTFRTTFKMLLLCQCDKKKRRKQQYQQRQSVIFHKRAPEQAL

Compound | pIC50 (Human M3 receptor) | pIC50 (Human β2 adrenoceptor)
O=C(COc1cccc([C@](O)(C(=O)OCC2CCN(Cc3ccccc3)CC2)c2ccccc2)c1)N1C[C@H]2CCN(C(=O)c3ccc(CCNC[C@H](O)c4ccc(O)c5[nH]c(=O)ccc45)cc3)[C@H]2C1 [Compound 111, (1-benzylpiperidin-4-yl)methyl (S)-2-hydroxy-2-(3-(2-((3aR,6aR)-1-(4-(2-(((R)-2-hydroxy-2-(8-hydroxy-2-oxo-1,2-dihydroquinolin-5-yl)ethyl)amino)ethyl)benzoyl)hexahydropyrrolo[3,4-b]pyrrol-5(1H)-yl)-2-oxoethoxy)phenyl)-2-phenylacetate] | 8.52 to 9.52 | 8.52 to 9.52
O=C(COc1cccc([C@](O)(C(=O)OCC2CCN(Cc3ccccc3)CC2)c2ccccc2)c1)N1C[C@@H]2CCN(C(=O)c3ccc(CCNC[C@H](O)c4ccc(O)c5[nH]c(=O)ccc45)cc3)[C@@H]2C1 [Compound 112, (1-benzylpiperidin-4-yl)methyl (S)-2-hydroxy-2-(3-(2-((3aS,6aS)-1-(4-(2-(((R)-2-hydroxy-2-(8-hydroxy-2-oxo-1,2-dihydroquinolin-5-yl)ethyl)amino)ethyl)benzoyl)hexahydropyrrolo[3,4-b]pyrrol-5(1H)-yl)-2-oxoethoxy)phenyl)-2-phenylacetate] | 8.52 to 9.52 | > 9.52
O=C(N[C@@H]1CCCN(C(=O)COc2cccc([C@](O)(C(=O)OCC3CCN(Cc4ccccc4)CC3)c3ccccc3)c2)C1)c1ccc(CCNC[C@H](O)c2ccc(O)c3[nH]c(=O)ccc23)cc1 [Compound 113, (1-benzylpiperidin-4-yl)methyl (S)-2-hydroxy-2-(3-(2-((R)-3-(4-(2-(((R)-2-hydroxy-2-(8-hydroxy-2-oxo-1,2-dihydroquinolin-5-yl)ethyl)amino)ethyl)benzamido)piperidin-1-yl)-2-oxoethoxy)phenyl)-2-phenylacetate] | 8.52 to 9.52 | 8.52 to 9.52
O=C(N[C@H]1C[C@H](NC(=O)c2ccc(COc3cccc([C@](O)(C(=O)OCC4CCN(Cc5ccccc5)CC4)c4ccccc4)c3)cc2)C1)c1ccc(CCNC[C@H](O)c2ccc(O)c3[nH]c(=O)ccc23)cc1 [Compound 114, (1-Benzylpiperidin-4-yl)methyl (S)-2-hydroxy-2-(3-((4-(((1R,3S)-3-(4-(2-(((R)-2-hydroxy-2-(8-hydroxy-2-oxo-1,2-dihydroquinolin-5-yl)ethyl)amino)-ethyl)benzamido)cyclobutyl)carbamoyl)benzyl)oxy)phenyl)-2-phenylacetate] | 8.52 to 9.52 | 8.52 to 9.52
O=C(c1ccc(CCNC[C@H](O)c2ccc(O)c3[nH]c(=O)ccc23)cc1)N1CCC2(CC1)CCN(C(=O)c1ccc(COc3cccc([C@](O)(C(=O)OCC4CCN(Cc5ccccc5)CC4)c4ccccc4)c3)cc1)CC2 [Compound 115, (1-benzylpiperidin-4-yl)methyl (S)-2-hydroxy-2-(3-((4-(9-(4-(2-(((R)-2-hydroxy-2-(8-hydroxy-2-oxo-1,2-dihydroquinolin-5-yl)ethyl)amino)ethyl)benzoyl)-3,9-diazaspiro[5.5]undecane-3-carbonyl)benzyl)oxy)phenyl)-2-phenylacetate] | 8.52 to 9.52 | 8.52 to 9.52
O=C(c1ccc(CCNC[C@H](O)c2ccc(O)c3[nH]c(=O)ccc23)cc1)N1CC2(C1)CN(C(=O)c1ccc(COc3cccc([C@](O)(C(=O)OCC4CCN(Cc5ccccc5)CC4)c4ccccc4)c3)cc1)C2 [Compound 116, (1-benzylpiperidin-4-yl)methyl (S)-2-hydroxy-2-(3-((4-(6-(4-(2-(((R)-2-hydroxy-2-(8-hydroxy-2-oxo-1,2-dihydroquinolin-5-yl)ethyl)amino)ethyl)benzoyl)-2,6-diazaspiro[3.3]heptane-2-carbonyl)benzyl)oxy)phenyl)-2-phenylacetate] | 8.52 to 9.52 | > 9.52
O=C(c1ccc(CCNC[C@H](O)c2ccc(O)c3[nH]c(=O)ccc23)cc1)N1CCC2(CC1)CN(C(=O)c1ccc(COc3cccc([C@](O)(C(=O)OCC4CCN(Cc5ccccc5)CC4)c4ccccc4)c3)cc1)C2 [Compound 117, (1-benzylpiperidin-4-yl)methyl (S)-2-hydroxy-2-(3-((4-(7-(4-(2-(((R)-2-hydroxy-2-(8-hydroxy-2-oxo-1,2-dihydroquinolin-5-yl)ethyl)amino)ethyl)benzoyl)-2,7-diazaspiro[3.5]nonane-2-carbonyl)benzyl)oxy)phenyl)-2-phenylacetate] | 8.52 to 9.52 | > 9.52
O=C(c1ccc(CCNC[C@H](O)c2ccc(O)c3[nH]c(=O)ccc23)cc1)N1CCN(C(=O)c2ccc(COc3cccc([C@](O)(C(=O)OCC4CCN(Cc5ccccc5)CC4)c4ccccc4)c3)cc2)CC1 [Compound 118, (1-benzylpiperidin-4-yl)methyl (S)-2-hydroxy-2-(3-((4-(4-(4-(2-(((R)-2-hydroxy-2-(8-hydroxy-2-oxo-1,2-dihydroquinolin-5-yl)ethyl)amino)ethyl)benzoyl)piperazine-1-carbonyl)benzyl)oxy)phenyl)-2-phenylacetate] | > 9.52 | 8.52 to 9.52
O=C(c1ccc(COc2cccc([C@](O)(C(=O)OCC3CCN(Cc4ccccc4)CC3)c3ccccc3)c2)cc1)N1CCC2(CC1)CN(C(=O)c1ccc(CCNC[C@H](O)c3ccc(O)c4[nH]c(=O)ccc34)cc1)C2 [Compound 119, (1-benzylpiperidin-4-yl)methyl (S)-2-hydroxy-2-(3-((4-(2-(4-(2-(((R)-2-hydroxy-2-(8-hydroxy-2-oxo-1,2-dihydroquinolin-5-yl)ethyl)amino)ethyl)benzoyl)-2,7-diazaspiro[3.5]nonane-7-carbonyl)benzyl)oxy)phenyl)-2-phenylacetate] | > 9.52 | 8.52 to 9.52
O=C(c1ccc(CCNC[C@H](O)c2ccc(O)c3[nH]c(=O)ccc23)cc1)N1CCCC2(C1)CN(C(=O)c1ccc(COc3cccc([C@](O)(C(=O)OCC4CCN(Cc5ccccc5)CC4)c4ccccc4)c3)cc1)C2 [Compound 120, (1-benzylpiperidin-4-yl)methyl (S)-2-hydroxy-2-(3-((4-(6-(4-(2-(((R)-2-hydroxy-2-(8-hydroxy-2-oxo-1,2-dihydroquinolin-5-yl)ethyl)amino)ethyl)benzoyl)-2,6-diazaspiro[3.5]nonane-2-carbonyl)benzyl)oxy)phenyl)-2-phenylacetate] | > 9.52 | > 9.52
O=C(c1ccc(CCNC[C@H](O)c2ccc(O)c3[nH]c(=O)ccc23)cc1)N1CCC2(CC1)CN(C(=O)c1ccc(COc3cccc([C@](O)(C(=O)OCC4CCN(Cc5ccccc5)CC4)c4ccccc4)c3)cc1)CCO2 [Compound 121, (1-benzylpiperidin-4-yl)methyl (S)-2-hydroxy-2-(3-((4-(9-(4-(2-(((R)-2-hydroxy-2-(8-hydroxy-2-oxo-1,2-dihydroquinolin-5-yl)ethyl)amino)ethyl)benzoyl)-1-oxa-4,9-diazaspiro[5.5]undecane-4-carbonyl)benzyl)oxy)phenyl)-2-phenylacetate] | > 9.52 | > 9.52
O=C(c1ccc(CCNC[C@H](O)c2ccc(O)c3[nH]c(=O)ccc23)cc1)N1CCC2(CCCN(C(=O)c3ccc(COc4cccc([C@](O)(C(=O)OCC5CCN(Cc6ccccc6)CC5)c5ccccc5)c4)cc3)C2)CC1 [Compound 122, (1-benzylpiperidin-4-yl)methyl (S)-2-hydroxy-2-(3-((4-(9-(4-(2-(((R)-2-hydroxy-2-(8-hydroxy-2-oxo-1,2-dihydroquinolin-5-yl)ethyl)amino)ethyl)benzoyl)-2,9-diazaspiro[5.5]undecane-2-carbonyl)benzyl)oxy)phenyl)-2-phenylacetate] | 8.52 to 9.52 | < 8.52
O=C(N[C@H]1C[C@H](NC(=O)c2ccc(COc3cccc([C@](O)(C(=O)OCC4CCN(Cc5ccccc5)CC4)c4ccccc4)c3)cc2)C1)c1ccc(CNC[C@H](O)c2ccc(O)c3[nH]c(=O)ccc23)cc1 [Compound 123, (1-benzylpiperidin-4-yl)methyl (S)-2-hydroxy-2-(3-((4-(((1R,3S)-3-(4-((((R)-2-hydroxy-2-(8-hydroxy-2-oxo-1,2-dihydroquinolin-5-yl)ethyl)amino)methyl)benzamido)cyclobutyl)carbamoyl)benzyl)oxy)phenyl)-2-phenylacetate] | 8.52 to 9.52 | 8.52 to 9.52
COc1cc(C(=O)N[C@H]2C[C@H](NC(=O)c3ccc(COc4cccc([C@](O)(C(=O)OCC5CCN(Cc6ccccc6)CC5)c5ccccc5)c4)cc3)C2)ccc1CNC[C@H](O)c1ccc(O)c2[nH]c(=O)ccc12 [Compound 124, (1-benzylpiperidin-4-yl)methyl (S)-2-hydroxy-2-(3-((4-(((1R,3S)-3-(4-((((R)-2-hydroxy-2-(8-hydroxy-2-oxo-1,2-dihydroquinolin-5-yl)ethyl)amino)methyl)-3-methoxybenzamido)cyclobutyl)carbamoyl)benzyl)oxy)phenyl)-2-phenylacetate] | 8.52 to 9.52 | 8.52 to 9.52
O=C(NCCNC(=O)c1ccc(COc2cccc([C@](O)(C(=O)OCC3CCN(Cc4ccccc4)CC3)c3ccccc3)c2)cc1)c1ccc(CNC[C@H](O)c2ccc(O)c3[nH]c(=O)ccc23)cc1 [Compound 125, (1-benzylpiperidin-4-yl)methyl (S)-2-hydroxy-2-(3-((4-((2-(4-((((R)-2-hydroxy-2-(8-hydroxy-2-oxo-1,2-dihydroquinolin-5-yl)ethyl)amino)methyl)benzamido)ethyl)carbamoyl)benzyl)oxy)phenyl)-2-phenylacetate] | 8.52 to 9.52 | 8.52 to 9.52
COc1cc(C(=O)NCCNC(=O)c2ccc(COc3cccc([C@](O)(C(=O)OCC4CCN(Cc5ccccc5)CC4)c4ccccc4)c3)cc2)ccc1CNC[C@H](O)c1ccc(O)c2[nH]c(=O)ccc12 [Compound 126, (1-benzylpiperidin-4-yl)methyl (S)-2-hydroxy-2-(3-((4-((2-(4-((((R)-2-hydroxy-2-(8-hydroxy-2-oxo-1,2-dihydroquinolin-5-yl)ethyl)amino)methyl)-3-methoxybenzamido)ethyl)carbamoyl)benzyl)oxy)phenyl)-2-phenylacetate] | 8.52 to 9.52 | 8.52 to 9.52
